In patent US6528049B2, “Bisexual attractants, aggregants and arrestants for adults and larvae of codling moth and other species of lepidoptera” (Trece, Inc., priority 1999, dated 2003):

What was measured:
Assay type in all cases: in vivo, Cydia pomonella
[1] = tested on: codling moth; assay: Field study of individual alcohols, aldehydes and esters; settings: individual compounds typically of purity 90-98%
Excerpt: Attractive activity of these compounds for male and female codling moth was compared to purified ethyl (2E,4Z)-2,4-decadienoate.
When the cumulative evaluation of all studied compounds and/or blends containing aldehyde, alcohol, ester and terpene compounds was made, the following results clearly confirmed the findings seen in Table 3.

[2] = tested on: codling moth; assay: Inherent attractancy field test of HPV blends in baited sticky traps in walnut orchard; settings: field tests over a three month period
Experimental: The blends listed in Table 2 were then field tested in walnut orchards for their attractancy to male and female codling moths, and also for enhancement with synthetic codling moth pheromone and other additives identified above. Their total capture (both males and females), and their individual male and female capture were determined and results obtained, were compared to insect capture obtained with purified individual ester, compound #25 namely ethyl (2E,4Z)-2,4-decadienoate, and to the codling moth male sex pheromone compound #26 in Table 3.
Individual blends containing representative aldehyde, alcohol, ester, monoterpene or sesquiterpene blends were provided in the traps in 10 mg/white septa.
Individual host-plant volatile (HPV) blends identified by the #1-23 in Table 3 were tested for codling moth attractancy in a walnut orchard, and the results were compared to the isolated purified ethyl (2E,4Z)-2,4-decadienoate (#25), to pheromone (#26) and to solvent controls (#24).
Twenty-five HPV blends and eight individual compounds were field tested. One synthetic blend, “ester blend #10,” elicited excellent codling moth attraction. In field tests, the other tested blends (see Table 3) and compounds captured no moths over a three month period, except for an “apple-skin surface extract” (Golden Delicious, ether solvent) (Σ=3 codling moth captured, 1♂: 2♀♀) and the individual compound, (E,E)-α-farnesene (Σ=1♂ codling moth captured). The field tests are presented in Table 3 and show attraction specificity for HPV ester blend #10.
Sticky traps (ICP and IIB traps, Trécé, Inc. Salinas, Calif.) were baited with either extracts, blends of HPVs, or individual HPVs (>95% purity) that evaporated from impregnated rubber septa. HPV blends, or individual HPV compounds, were diluted in hexane and pipetted onto rubber septa at approximate doses of 10 mg/septum. A single treatment septum was placed in each sticky wing-trap, and hung approximately six meters high in the outer walnut canopy. Trap liners and treatment HPV septa were replaced every 10-14 days and pheromone septa every month and tests were conducted throughout two summers.
A replicated series of different HPV treatment traps, control “blank” (unbaited) trap, and a commercial pheromone-baited trap (Trécé, Inc.) were distributed 5 trees apart throughout two distant Hartley walnut orchards and validated in 12 walnut orchards. The orchards were distinct, with one using three summer insecticide sprays and the other had no spraying. Thus, these test orchards had low vs. moderate relative populations of codling moths. Significant effects on the gender of codling moths captured were judged by paired tests, either T-test or a nonparametric test.

[3] = tested on: codling moth; assay: Septa colour and loading dose trap study; design: ♂♂ ± SEM / ♀♀ ± SEM: unit not given here
Experimental: Since there have been differences observed between traps containing gray, white or red septa, a study was performed to determine the significance of the specific septa and their effect on the increase or decrease of attractancy. […]

[4] = tested on: codling moth; assay: Trap capture with purified (2E,4E) and (2E,4Z) 2,4-decadienoic acid esters; settings: 1 mg dose/gray septum; four orchards; means of 21 trap checks
Experimental: In this study, test compounds were highly purified synthetic samples. The purities of the compounds are expressed as percentages. Individual traps were baited with 1 mg dose/gray septum; five replicate blocks in four orchards; means of 21 total trap checks.

[5] = tested on: codling moth; assay: Trap capture with proportional mixes of ethyl 2,4-decadienoate isomers; settings: 1 mg dose/gray septum
Experimental: Additionally, studies were performed to determine the attraction of codling moth to proportional mixes of (2E,4Z) and (2E,4E) isomers of ethyl 2,4-decadienoate and highly purified samples of each. Traps were baited with 1 mg dose/gray septum.

[6] = 0.1 mg A, Gray Septa, High (high population conventional orchard)
[7] = 0.1 mg A, Gray Septa, Low (low population organic orchard)
[8] = 0.1 mg A, Red Septa, High (high population conventional orchard)
[9] = 0.1 mg A, Red Septa, Low (low population organic orchard)
[10] = 1.0 mg A, Gray Septa, High (high population conventional orchard)
[11] = 1.0 mg A, Gray Septa, Low (low population organic orchard)
[12] = 1.0 mg A, Red Septa, Low (low population organic orchard)
[13] = 3 mg A, Gray Septa, High (high population conventional orchard)
[14] = 3 mg A, Gray Septa, Low (low population organic orchard)
[15] = 3 mg A, Red Septa, High (high population conventional orchard)
[16] = 3 mg A, Red Septa, Low (low population organic orchard)
[17] = 10 mg A, Gray Septa, High (high population conventional orchard)
[18] = 10 mg A, Gray Septa, Low (low population organic orchard)
[19] = 10 mg A, Red Septa, High (high population conventional orchard)
[20] = 10 mg A, Red Septa, Low (low population organic orchard)
[21] = 20 mg A, Gray Septa, High (high population conventional orchard)
[22] = 20 mg A, Gray Septa, Low (low population organic orchard)
[23] = 20 mg A, Red Septa, High (high population conventional orchard)
[24] = 20 mg A, Red Septa, Low (low population organic orchard)
[25] = Gray Septa, High (high population conventional orchard)
[26] = Gray Septa, Low (low population organic orchard)
[27] = Red Septa, High (high population conventional orchard)
[28] = Red Septa, Low (low population organic orchard)

## CCCCCC=CC=CCO [(2,4)-2,4-decadien-1-ol]
[1]
  attractancy to male and female codling moth (in words): very low male attractancy

## CCCCCCC/C=C/COC(C)=O [(E)-2-decen-1-yl acetate]
[1]
  attractancy to male and female codling moth (in words): most active

## C=C/C(C)=C/C/C=C(\C)CCC=C(C)C [(E,E)-α-farnesene]
[2]
  Σ codling moth captured: 1

## CCCCC/C=C\C=C\C(=O)OCC [A, ethyl (2E,4Z)-2,4-decadienoate]
[3]; [6]
  ♀♀ ± SEM: 1.40 ± 0.52
  ♂♂ ± SEM: 5.88 ± 1.80
[3]; [7]
  ♀♀ ± SEM: 1.05 ± 0.49
  ♂♂ ± SEM: 0.97 ± 0.47
[3]; [8]
  ♀♀ ± SEM: 2.76 ± 0.80
  ♂♂ ± SEM: 1.04 ± 0.41
[3]; [9]
  ♀♀ ± SEM: 0.43 ± 0.18
  ♂♂ ± SEM: 0.78 ± 0.55
[3]; [10]
  ♀♀ ± SEM: 4.77 ± 1.34
  ♂♂ ± SEM: 3.86 ± 1.55
[3]; [11]
  ♀♀ ± SEM: 0.84 ± 0.30
  ♂♂ ± SEM: 1.13 ± 0.63
[3]; 1.0 mg A, Red Septa, High (high population conventional orchard)
  ♀♀ ± SEM: 4.12 ± 1.37
[3]; [12]
  ♀♀ ± SEM: 1.06 ± 0.49
  ♂♂ ± SEM: 1.38 ± 0.60
[3]; [13]
  ♀♀ ± SEM: 5.25 ± 1.33
  ♂♂ ± SEM: 6.20 ± 1.25
[3]; [14]
  ♀♀ ± SEM: 1.18 ± 0.37
  ♂♂ ± SEM: 2.02 ± 0.72
[3]; [15]
  ♀♀ ± SEM: 6.46 ± 1.98
  ♂♂ ± SEM: 4.40 ± 1.28
[3]; [16]
  ♀♀ ± SEM: 0.69 ± 0.26
  ♂♂ ± SEM: 0.78 ± 0.35
[3]; [17]
  ♀♀ ± SEM: 5.77 ± 1.30
  ♂♂ ± SEM: 3.59 ± 0.92
[3]; [18]
  ♀♀ ± SEM: 1.28 ± 0.33
  ♂♂ ± SEM: 1.29 ± 0.36
[3]; [19]
  ♀♀ ± SEM: 7.04 ± 1.90
  ♂♂ ± SEM: 4.25 ± 0.99
[3]; [20]
  ♀♀ ± SEM: 0.57 ± 0.15
  ♂♂ ± SEM: 0.87 ± 0.41
[3]; [21]
  ♀♀ ± SEM: 3.59 ± 1.46
  ♂♂ ± SEM: 6.14 ± 1.46
[3]; [22]
  ♀♀ ± SEM: 2.83 ± 1.07
  ♂♂ ± SEM: 2.97 ± 0.97
[3]; [23]
  ♀♀ ± SEM: 5.43 ± 1.78
  ♂♂ ± SEM: 2.87 ± 0.88
[3]; [24]
  ♀♀ ± SEM: 0.66 ± 0.15
  ♂♂ ± SEM: 0.94 ± 0.20
[3]; [25]
  ♂♂ ± SEM (50 mg A): 10.15 ± 2.04
  ♂♂ ± SEM (under 50 mg A): 6.18 ± 1.60
[3]; [26]
  ♂♂ ± SEM (50 mg A): 1.79 ± 0.69
  ♂♂ ± SEM (under 50 mg A): 2.04 ± 0.83
[3]; [27]
  ♂♂ ± SEM (50 mg A): 7.30 ± 2.00
  ♂♂ ± SEM (under 50 mg A): 3.63 ± 0.93
[3]; [28]
  ♂♂ ± SEM (50 mg A): 0.74 ± 0.24
  ♂♂ ± SEM (under 50 mg A): 0.57 ± 0.18

## CCCCC/C=C/C=C/C(=O)OCCCC [Butyl (2E,4E)-2,4-Decadienoate]
[4]
  FEMALE CM Captured: ♂♂/trap/night ± SEM: 0 ♀♀/trap/night
  MALE CM Captured: ♂♂/trap/night ± SEM: 0.02 ± 0.02 ♂♂/trap/night
  Total CM Captured: CM/trap/night ± SEM: 0.02 ± 0.02 CM/trap/night

## CCCCC/C=C/C=C/C(=O)OCC [Ethyl (2E,4E)-2,4-Decadienoate]
[5]
  Female CM Captured ♀♀/trap/night ± SEM: 0.05 ± 0.05 ♀♀/trap/night
  MALE CM Captured: ♂♂/trap/night ± SEM: 0.19 ± 0.05 ♂♂/trap/night
  Total CM Captured: CM/trap ± SEM: 0.24 ± 0.10 CM/trap
[4]
  MALE CM Captured: ♂♂/trap/night ± SEM: 0.24 ± 0.06 ♂♂/trap/night
  Total CM Captured: CM/trap/night ± SEM: 0.77 ± 0.20 CM/trap/night

## CCCCC/C=C\C=C\C(=O)OCC [Ethyl (2E,4Z)-2,4-Decadienoate, #1 (95.3%)]
[4]
  MALE CM Captured: ♂♂/trap/night ± SEM: 1.67 ± 0.41 ♂♂/trap/night
  Total CM Captured: CM/trap/night ± SEM: 4.49 ± 1.29 CM/trap/night

## CCCCC/C=C\C=C\C(=O)OCC [Ethyl (2E,4Z)-2,4-Decadienoate, #2 (88.5%)]
[4]
  MALE CM Captured: ♂♂/trap/night ± SEM: 1.89 ± 0.79 ♂♂/trap/night
  Total CM Captured: CM/trap/night ± SEM: 4.25 ± 1.43 CM/trap/night

## CCCCC/C=C\C=C\C(=O)OCCCCCC [Hexyl (2E,4Z)-2,4-Decadienoate (91. 6%), Hexyl (2E,4Z)-2,4-Decadienoate]
[4]
  FEMALE CM Captured: ♂♂/trap/night ± SEM: 0.36 ± 0.18 ♀♀/trap/night
  MALE CM Captured: ♂♂/trap/night ± SEM: 0.21 ± 0.09 ♂♂/trap/night
  Total CM Captured: CM/trap/night ± SEM: 0.57 ± 0.22 CM/trap/night

## CCCCC/C=C\C=C\C(=O)OCCCCCC [Hexyl (2E,4Z)-2,4-Decadienoate (100%), Hexyl (2E,4Z)-2,4-Decadienoate]
[4]
  FEMALE CM Captured: ♂♂/trap/night ± SEM: 0.02 ♀♀/trap/night
  MALE CM Captured: ♂♂/trap/night ± SEM: 0.01 ± 0.01 ♂♂/trap/night
  Total CM Captured: CM/trap/night ± SEM: 0.02 ± 0.02 CM/trap/night

## CCCCC/C=C/C=C/C(=O)OC(C)C [Isopropyl (2E,4E)-2,4-Decadienoate]
[4]
  FEMALE CM Captured: ♂♂/trap/night ± SEM: 0.09 ± 0.04 ♀♀/trap/night
  MALE CM Captured: ♂♂/trap/night ± SEM: 0.05 ± 0.02 ♂♂/trap/night
  Total CM Captured: CM/trap/night ± SEM: 0.14 ± 0.05 CM/trap/night

## CCCCC/C=C/C=C/C(=O)OC [Methyl (2E,4E)-2,4-Decadienoate]
[4]
  FEMALE CM Captured: ♂♂/trap/night ± SEM: 0.04 ± 0.03 ♀♀/trap/night
  MALE CM Captured: ♂♂/trap/night ± SEM: 0.01 ± 0.01 ♂♂/trap/night
  Total CM Captured: CM/trap/night ± SEM: 0.05 ± 0.03 CM/trap/night

## CCCCC/C=C\C=C\C(=O)OC [Methyl (2E,4Z)-2,4-Decadienoate]
[1]
  attractancy to male and female codling moth (in words): most active
[4]
  FEMALE CM Captured: ♂♂/trap/night ± SEM: 0.41 ± 0.14 ♀♀/trap/night
  MALE CM Captured: ♂♂/trap/night ± SEM: 0.12 ± 0.07 ♂♂/trap/night
  Total CM Captured: CM/trap/night ± SEM: 0.54 ± 0.19 CM/trap/night

## CCCCCCC/C=C/C(=O)OCC [ethyl (2E)-2-decenoate]
[1]
  attractancy to male and female codling moth (in words): most active

## CCCCC/C=C/C=C/C(=O)OCCC [n-Propyl (2E,4E)-2,4-Decadienoate]
[4]
  FEMALE CM Captured: ♂♂/trap/night ± SEM: 0.19 ± 0.07 ♀♀/trap/night
  MALE CM Captured: ♂♂/trap/night ± SEM: 0.17 ± 0.13 ♂♂/trap/night
  Total CM Captured: CM/trap/night ± SEM: 0.36 ± 0.19 CM/trap/night

## CCCCC/C=C\C=C\C(=O)OCCC [n-Propyl (2E,4Z)-2,4-Decadienoate]
[4]
  FEMALE CM Captured: ♂♂/trap/night ± SEM: 1.12 ± 0.39 ♀♀/trap/night
  MALE CM Captured: ♂♂/trap/night ± SEM: 0.49 ± 0.14 ♂♂/trap/night
  Total CM Captured: CM/trap/night ± SEM: 1.61 ± 0.49 CM/trap/night
